Assay results: article PMC6503114, “Application of Antimicrobial Peptides of the Innate Immune System in Combination With Conventional Antibiotics—A Novel Way to Combat Antibiotic Resistance?” (Frontiers in Cellular and Infection Microbiology, 2019)
≈ marks a conversion by molar mass, not a printed value. Like-named read-outs stand apart in the source and are kept apart here. Where no end group is shown, it is not given here.

How the values were obtained:
Human neutrophils = system: Human neutrophils
Method: The pellet formed under the Ficoll-400 layer after separation contained both neutrophils and erythrocytes. It was also transferred into a separate tube, where the red blood cells were lysed with 0.83% ammonium chloride solution, which was added in a ratio of 1:4. After the thorough mixing, the suspension was incubated for 10 min at room temperature, and then centrifuged for 10 min at 300 g and 4°C. The resulting precipitate containing neutrophils was washed twice with the sterile PBS.
(§1) We calculated Fractional Effective Concentration Index (FECI), which could be seen as a particular case of the interaction index (I) proposed by Berenbaum ([1977]) or of the similar combination index (CI) proposed by Chou and Talalay ([1983]), according to the equation below: […]
(§2) Here, [MEC A] and [MEC B] are the minimum effective concentrations (MEC) of substances A and B, when they are used alone. […] [A] and [B] are respective concentrations of substances A and B in their combination, where the same statistically significant difference is detected. A non-parametric Mann-Whitney U-test (p < 0.05 or p < 0.01) was used for the mentioned statistical comparison.
(§3) We have chosen the same intervals as that of FICI to determine synergy, additivity, independent action, and antagonism based on the minimal FECI values. However, in case of cytotoxic or hemolytic effect we were interested mainly in testing the possibility of additive or synergistic interaction itself, and not in assessing the exact magnitude of such interaction. Thus, in contrast to the “checkerboard titration” method used for combined antimicrobial activity investigation, studying the combined cytotoxic effect, we considered only two combinations of concentrations for the substances A and B in the mixture: • (½ MEC A + ½ MEC B), which, if found effective, provides the FECI value of 1 (the threshold value for additivity); • (¼ MEC A + ¼ MEC B), which, if found effective, provides the FECI value of 0.5 (the threshold value for synergetic interaction).
(§4) When action on tumor cells was tested in combination with antitumor antibiotic the lower concentrations up to ( 1/16 MEC A + 1/16 MEC B) as in checkerboard titration were additionally examined to assess the magnitude of synergistic effect more precisely. The final conclusion was made based on the three independent experiments.
(§5) Standard MTT-test (Mosmann, [1983]) was used for the examination of the cytotoxic activity of antimicrobial compounds and their combinations toward varied eukaryotic cells. Briefly, cell suspensions in RPMI-1640 prepared as described in Eukaryotic Cells were dispensed into the 96-well microplates (2 × 10^5 cells/well). Then, serial dilutions of AMPs, or other antibiotic compounds, or their mixtures in RPMI-1640 were added. In positive controls (100% cell survival) the according volume of RPMI-1640 without test substances was added instead. The final volume in each well was 100 μl. Negative controls (0% cell survival) were made with 100 μl of the sterile RPMI-1640. The plates were incubated at 37°C under 5% CO2 for 24 h. Four hours before the end of incubation, 10 μl of metabolic marker MTT−3-(4,5-dimethylthiazol-2-yl)-2,5-diphenyltetrazolium bromide (5 mg/ml, diluted in PBS) was added to each well. Incubation was stopped by adding 90 μl of isopropanol containing 0.04 M HCl. Content of the wells was thoroughly mixed, so that the formazan crystals, formed in case of the reduction of MTT in presence of actively metabolizing cells, were fully dissolved. The optical density of the samples was evaluated at 540 nm, subtracting the background absorbance at 690 nm, by SpectraMax 250 Spectrophotometer (Molecular Devices, USA). The experiments were repeated at least three times. In each experiment test samples were made in triplicates and control samples were made in hexaplicates.

K562 = K562 tumor cells (doxorubicin-sensitive); MTT, 24 h
Method: The human erythromyeloid leukemia cell line K562 was obtained from the collection of the Institute of Cytology RAS (Saint Petersburg, Russia) and cultured in RPMI-1640 medium containing gentamicin (100 μg/ml) and 10% of fetal bovine serum at 37°C, 5% CO2. […] Drug resistance was maintained by monthly selection with the antibiotic (2 μg/ml in the culturing medium). Doxorubicin was removed from the medium 3 days prior to beginning any experiments. Before the testing K562 cells were washed twice with PBS and resuspended in RPMI-1640 in the same way as the other cell types.
as §1, §2, §3, §4
as §5, with “dissolved.” for “dissolved. The optical density of the samples was evaluated at 540 nm, subtracting the background absorbance at 690 nm, by SpectraMax 250 Spectrophotometer (Molecular Devices, USA). The experiments were repeated at least three times. In each experiment test samples were made in triplicates and control samples were made in hexaplicates.”

Human PBMC = assay: MTT-test
Method: To obtain neutrophils and mononuclear cells, whole heparinized blood was diluted with sterile PBS in a 1:1 ratio and carefully inserted into the sterile polystyrene 50 ml tube upon the 5 ml of the sterile Ficoll-400 (Pharmacia, Sweden) with a density of 1.077. The tube was centrifuged at 600 g and 4°C for 40 min. After separation, the mononuclear “ring” located between the blood plasma and Ficoll was collected with a Pasteur pipette, transferred to another tube, and washed twice with 10 ml of sterile PBS by centrifugation for 10 min at 300 g and 4°C.
as §1, §2, §3, §4, §5

Murine EAC = assay: MTT-test; type: cell-based, mice; conditions: Murine EAC tumor cells, 24 h
Method: Before the cells extraction, mice were sacrificed by cervical dislocation in accordance with the supplement to the Directive 86/609/EEC and its update Directive 2010/63/EU addressing the recommendations for euthanasia of experimental animals (Close et al., [1996]). To obtain peritoneal macrophages, healthy mice were used. The abdominal cavity of each animal was washed with 3 ml of sterile PBS using a Pasteur pipette. The culture of EAC cells was kindly provided by Dr. E.P. Kiseleva (Immunology Department of the Institute of Experimental Medicine, Saint Petersburg, Russia). On the tenth day after the intraperitoneal tumor inoculation, 0.5–1.5 ml of ascitic fluid containing EAC cells was obtained from the abdominal cavity of the animals. Murine cells (normal or tumor) were washed twice with 10 ml of sterile PBS and resuspended in RPMI-1640 medium as described above for human neutrophils and PBMC.
as §1, §2, §3, §4
as §5, with “dissolved.” for “dissolved. The optical density of the samples was evaluated at 540 nm, subtracting the background absorbance at 690 nm, by SpectraMax 250 Spectrophotometer (Molecular Devices, USA). The experiments were repeated at least three times. In each experiment test samples were made in triplicates and control samples were made in hexaplicates.”

M. luteus CIP A270 = assay: microbe, parasite or virus in culture; type: cell-based, Micrococcus luteus
Method: Prior to the “checkerboard” synergy test the minimal inhibitory concentrations (MIC) of individual substances were determined using broth microdilution assay. Testing was performed in 60-well polystyrene Terasaki microplates with V-shaped bottom generally according to the guidelines of the European Committee for Antimicrobial Susceptibility Testing with subtle modifications designed for AMP testing (Tossi et al., [1997]; Wiegand et al., [2008]). Cultivation of bacteria was carried out in 2.1% Müller-Hinton broth at 37°C with shaking. Two-fold serial dilutions of peptides, antibiotics and other antimicrobials were made with 10 mM sodium phosphate buffer, pH 7.4, containing 0.1% of BSA. The plates were preliminary incubated with 0.1% BSA for 1 h at 37°C to reduce a non-specific binding of peptides to the plates. After that BSA was removed, and serial dilutions were added into the plate wells in triplicates followed by the same volume of the suspension of bacterial cells in logarithmic phase of growth in concentration of 1 × 10^6 CFU/ml. After the 18 h overnight incubation at 37°C, the MIC value for each compound was determined as its lowest concentration completely inhibiting the visible growth of bacteria. The final results were calculated as median values based on 3–6 independent experiments.

[1] = Micrococcus luteus, CIPA270, median of 3–6 experiments
[2] = Human neutrophils, normal cells, MTT, 24 h
[3] = Human PBMC, normal cells, MTT, 24 h, square brackets = twice the maximal tested concentration

Compound	MEC of cytotoxic action (Human neutrophils; human, 24 h)	MEC of cytotoxic action (K562)	MEC of cytotoxic action (Human PBMC; human, 24 h)	MEC of cytotoxic action (Murine EAC)	MIC (M. luteus CIP A270; [1]) [µM]	MEC of cytotoxic action (Human neutrophils; [2])	MEC of cytotoxic action (Human PBMC; [3]) [µM]	MIC (M. luteus CIP A270; median of 3–6 experiments) [µM]	MEC of cytotoxic action (Human neutrophils)	MEC of cytotoxic action (Human PBMC)
CNC(C)C1CCC(N)C(OC2C(N)CC(N)C(OC3OCC(C)(O)C(NC)C3O)C2O)O1 (centres unmarked) [Gentamicin]	50 µM	50 µM	>50 [100] μM	>50 [100] μM	0.16 (≈ 0.0764 µg/mL)					
Cc1onc(-c2ccccc2)c1C(=O)N[C@@H]1C(=O)N2[C@@H]1SC(C)(C)[C@@H]2C(=O)O [Oxacillin]	>50 [100] μM	>50 [100] μM	>50 [100] μM	>50 [100] μM	3.1 (≈ 1.24 µg/mL)					
Polymyxin B		25 µM		50 µM		>50 [100] μM	50	0.6		
RFRLPFRRPPIRIHPPPFYPPFRRFL-NH2 (C-terminus assumed) [ChBac3.4]		20 µM		5.0 µM					>20 [40] μM	20 µM
CC[C@H](C)[C@H](NC(=O)[C@H](CCCCN)NC(=O)[C@H](CCC(=O)O)NC(=O)[C@H](CCCCN)NC(=O)[C@H](CO)NC(=O)[C@H](CCCCN)NC(=O)[C@H](CCCNC(=N)N)NC(=O)[C@H](Cc1ccccc1)NC(=O)[C@H](Cc1ccccc1)NC(=O)[C@H](CC(=O)O)NC(=O)CNC(=O)[C@H](CC(C)C)NC(=O)[C@@H](N)CC(C)C)C(=O)NCC(=O)N[C@@H](CCCCN)C(=O)N[C@@H](CCC(=O)O)C(=O)N[C@@H](Cc1ccccc1)C(=O)N[C@@H](CCCCN)C(=O)N[C@@H](CCCNC(=N)N)C(=O)N[C@H](C(=O)N[C@H](C(=O)N[C@@H](CCC(N)=O)C(=O)N[C@@H](CCCNC(=N)N)C(=O)N[C@H](C(=O)N[C@@H](CCCCN)C(=O)N[C@@H](CC(=O)O)C(=O)N[C@@H](Cc1ccccc1)C(=O)N[C@@H](CC(C)C)C(=O)N[C@@H](CCCNC(=N)N)C(=O)N[C@@H](CC(N)=O)C(=O)N[C@@H](CC(C)C)C(=O)N[C@H](C(=O)N1CCC[C@H]1C(=O)N[C@@H](CCCNC(=N)N)C(=O)N[C@H](C(=O)N[C@@H](CCC(=O)O)C(=O)N[C@@H](CO)C(=O)O)[C@@H](C)O)C(C)C)[C@@H](C)CC)C(C)C)[C@@H](C)CC [LL-37]		5.0 µM		10 µM		10 µM	12			
CO[C@H]1/C=C/O[C@@]2(C)Oc3c(C)c(O)c4c(O)c(c(/C=N/N5CCN(C)CC5)c(O)c4c3C2=O)NC(=O)/C(C)=C\C=C\[C@H](C)[C@H](O)[C@@H](C)[C@@H](O)[C@@H](C)[C@H](OC(C)=O)[C@@H]1C [Rifampicin]	20 µM	>20 [40] μM	>20 [40] μM	>20 [40] μM	0.003 (≈ 0.00247 µg/mL)					
CC1COc2c(N3CCN(C)CC3)c(F)cc3c(=O)c(C(=O)O)cn1c23 (centres unmarked) [Ofloxacin]	>50 [100] μM	>50 [100] μM	>50 [100] μM	>50 [100] μM	5 (≈ 1.81 µg/mL)					
Lysozyme: egg white lysozyme, antimicrobial protein, from BioChemica		>50 [100] μM		50 µM				0.08	>50 [100] μM	>50 [100] μM
